Results: US20240018125A1, “CYCLIC ISOTHIOUREA DERIVATIVES AS CXCR4 MODULATORS” (ERMIUM THERAPEUTICS, priority 2020, published 2024)
Counter-ions that a name gives are not always drawn.

Row | Compound | melting point [°C]
1 | Fc1cccc2c1CN=C(SCC1=CSC3=NCc4ccccc4CN13)N2 (as salt: hydrochloride) [Example 23, 3-(((5-fluoro-1,4-dihydroquinazolin-2-yl)thio)methyl)-5,10-dihydrobenzo[e]thiazolo[3,2-a][1,3]diazepine dihydrochloride] | > 240
2 | C1=C(CSC2=NCc3ccccc3N2)N2Cc3ccccc3N=C2S1 (as salt: hydrochloride) [Example 12, 3-(((1,4-dihydroquinazolin-2-yl)thio)methyl)-5H-thiazolo[2,3-b]quinazoline dihydrochloride] | > 250
3 | CC1(C)N=C(SCC2=CSC3=NCc4ccccc4CN23)Nc2ccccc21 (as salt: hydrochloride) [Example 21, 3-(((4,4-dimethyl-1,4-dihydroquinazolin-2-yl)thio)methyl)-5,10-dihydrobenzo[e]thiazolo[3,2-a][1,3]diazepine dihydrochloride] | > 250
4 | C1=C(CSC2=NCc3ccccc3N2)N2C(=Nc3ccccc3C2c2ccccc2)S1 (stereo not shown) (as salt: hydrochloride) [Example 43, 3-(((3,4-dihydroquinazolin-2-yl)thio)methyl)-5-phenyl-5H-thiazolo[2,3-b]quinazoline dihydrochloride] | 184 to 190
5 | CC1(c2ccccc2)CN=C(SCC2=CSC3=NCc4ccccc4CN23)N1 (stereo not shown) (as salt: hydrochloride) [Example 30, 3-(((5-methyl-5-phenyl-4,5-dihydro-1H-imidazol-2-yl)thio)methyl)-5,10-dihydrobenzo[e]thiazolo[3,2-a][1,3]diazepine dihydrochloride] | 195 to 200
6 | Fc1cccc2c1CN1C(CSC3=NCc4ccccc4N3)=CSC1=N2 (as salt: hydrochloride) [Example 18, 3-(((3,4-dihydroquinazolin-2-yl)thio)methyl)-6-fluoro-5H-thiazolo[2,3-b]quinazoline dihydrochloride] | 193 to 203
7 | CC1(C)CN=C(SCC2=CSC3=Nc4ccccc4CN23)N1 (as salt: hydrochloride) [Example 5, 3-(((5,5-dimethyl-4,5-dihydro-1H-imidazol-2-yl)thio)methyl)-5H-thiazolo[2,3-b]quinazoline dihydrochloride] | > 250
8 | C1=C(CSC2=NCc3ccccc3N2)N2C(=N[C@H](c3ccccc3)[C@H]2c2ccccc2)S1 (relative stereo) (as salt: hydrochloride) [Example 16, trans-3-(((3,4-dihydroquinazolin-2-yl)thio)methyl)-5,6-diphenyl-5,6-dihydroimidazo[2,1-b]thiazole dihydrochloride] | 175 to 185
9 | C1=C(CSC2=NCc3ccccc3N2)N2Cc3ccccc3CN=C2S1 (as salt: hydrochloride) [Example 11, 3-(((3,4-dihydroquinazolin-2-yl)thio)methyl)-5,10-dihydrobenzo[e]thiazolo[3,2-a][1,3]diazepine dihydrochloride] | 189 to 193
10 | c1ccc2c(c1)CN=C(SCCN1CCCC1)N2 (as salt: hydrochloride) [Example 77, 2-((2-(pyrrolidin-1-yl)ethyl)thio)-1,4-dihydroquinazoline dihydrochloride] | 195 to 203
11 | OC1(CSC2=NCc3ccccc3N2)CSC2=N[C@H](c3ccccc3)[C@@H](c3ccccc3)N21 (relative stereo) (as salt: hydrochloride) [Example 17, trans-3-(((3,4-dihydroquinazolin-2-yl)thio)methyl)-5,6-diphenyl-2,3,5,6-tetrahydroimidazo[2,1-b]thiazol-3-ol dihydrochloride] | 195 to 200
12 | C1=C(CSC2=N[C@@H]3CCCC[C@H]3N2)N2Cc3ccccc3N=C2S1 (as salt: hydrochloride) [Example 32, 3-((((3aR,7aR)-3a,4,5,6,7,7a-hexahydro-1H-benzo[d]imidazol-2-yl)thio)methyl)-5H-thiazolo[2,3-b]quinazoline dihydrochloride] | > 250
13 | C1=C(CSC2=N[C@@H](c3ccccc3)[C@H](c3ccccc3)N2)N2Cc3ccccc3CN=C2S1 (as salt: hydrochloride) [Example 24, 3-((((4S,5S)-4,5-diphenyl-4,5-dihydro-1H-imidazol-2-yl)thio)methyl)-5,10-dihydrobenzo[e]thiazolo[3,2-a][1,3]diazepine dihydrochloride] | 178 to 185
14 | CC1(C)CN=C(SCC2=CSC3=NCc4ccccc4CN23)N1 (as salt: hydrochloride) [Example 8, 3-(((5,5-dimethyl-4,5-dihydro-1H-imidazol-2-yl)thio)methyl)-5,10-dihydrobenzo[e]thiazolo[3,2-a][1,3]diazepine dihydrochloride] | 244 to 247
15 | CC1(C)CN2C(CSC3=NCc4ccccc4N3)=CSC2=N1 (as salt: hydrochloride) [Example 3, 3-(((3,4-dihydroquinazolin-2-yl)thio)methyl)-6,6-dimethyl-5,6-dihydroimidazo[2,1-b]thiazole dihydrochloride] | 245 to 249
16 | C1=C(CSC2=NCCc3ccccc3N2)N2Cc3ccccc3CN=C2S1 (as salt: hydrochloride) [Example 25, 3-(((4,5-dihydro-1H-benzo[d][1,3]diazepin-2-yl)thio)methyl)-5,10-dihydrobenzo[e]thiazolo[3,2-a][1,3]diazepine dihydrochloride] | > 250
17 | COc1ccc(CC2(C)CN=C(SCC3=CSC4=NCc5ccccc5CN34)N2)cc1 (stereo not shown) (as salt: hydrochloride) [Example 34, 3-(((5-(4-methoxybenzyl)-5-methyl-4,5-dihydro-1H-imidazol-2-yl)thio)methyl)-5,10-dihydrobenzo[e]thiazolo[3,2-a][1,3]diazepine dihydrochloride] | 173 to 180
18 | CCCCN1CCN=C1SCC1=CSC2=NCc3ccccc3CN12 (as salt: hydrochloride) [Example 37, 3-(((1-butyl-4,5-dihydro-1H-imidazol-2-yl)thio)methyl)-5,10-dihydrobenzo[e]thiazolo[3,2-a][1,3]diazepine dihydrochloride] | 206 to 212

Next, values leading:

Row | melting point [°C] | Compound
19 | 180 to 190 | C1=C(CSC2=NCc3ccccc3N2)N2C[C@H](Cc3c[nH]c4ccccc34)N=C2S1 (as salt: hydrochloride) [Example 109, (S)-6-((1H-indol-3-yl)methyl)-3-(((1,4-dihydroquinazolin-2-yl)thio)methyl)-5,6-dihydroimidazo[2,1-b]thiazole dihydrochloride]
20 | 150 to 164 | COc1ccc(C[C@@H]2CN3C(CSC4=NCc5ccccc5N4)=CSC3=N2)cc1 (as salt: hydrochloride) [Example 124, (R)-3-(((1,4-dihydroquinazolin-2-yl)thio)methyl)-6-(4-methoxybenzyl)-5,6-dihydroimidazo[2,1-b]thiazole dihydrochloride]
21 | > 250 | Fc1ccc2c(c1)N=C1SC=C(CSC3=NCc4ccccc4N3)N1C2 (as salt: hydrochloride) [Example 82, 3-(((1,4-dihydroquinazolin-2-yl)thio)methyl)-8-fluoro-5H-thiazolo[2,3-b]quinazoline dihydrochloride]
22 | 80 to 88 | CC1N=C(SCC2=CSC3=NC(Cc4ccccc4)CN23)Nc2ccccc21 (stereo not shown) (as salt: hydrochloride) [Example 113, 6-benzyl-3-(((4-methyl-1,4-dihydroquinazolin-2-yl)thio)methyl)-5,6-dihydroimidazo[2,1-b]thiazole dihydrochloride]
23 | 40 to 44 | CCCCN1Cc2ccccc2N=C1SCC1=CSC2=NC(Cc3ccccc3)CN12 (stereo not shown) (as salt: hydrochloride) [Example 93, 6-benzyl-3-(((3-butyl-3,4-dihydroquinazolin-2-yl)thio)methyl)-5,6-dihydroimidazo[2,1-b]thiazole dihydrochloride]
24 | 50 to 53 | C1=C(CSC2=NCCc3ccccc3N2)N2CC(Cc3ccccc3)N=C2S1 (stereo not shown) (as salt: hydrochloride) [Example 88, 6-benzyl-3-(((4,5-dihydro-1H-benzo[d][1,3]diazepin-2-yl)thio)methyl)-5,6-dihydroimidazo[2,1-b]thiazole dihydrochloride]
25 | 94 to 108 | c1ccc(C2CCCN2CCSC2=NCc3ccccc3N2)cc1 (stereo not shown) (as salt: hydrochloride) [Example 128, 2-((2-(2-phenylpyrrolidin-1-yl)ethyl)thio)-1,4-dihydroquinazoline dihydrochloride]
26 | > 250 | Fc1ccc2c(c1)CN1C(CSC3=NCc4ccccc4N3)=CSC1=N2 (as salt: hydrochloride) [Example 84, 3-(((1,4-dihydroquinazolin-2-yl)thio)methyl)-7-fluoro-5H-thiazolo[2,3-b]quinazoline dihydrochloride]
27 | 180 to 185 | CC1(C)c2ccccc2N=C2SC=C(CSC3=NCc4ccccc4N3)N21 (as salt: hydrochloride) [Example 95, 3-(((1,4-dihydroquinazolin-2-yl)thio)methyl)-5,5-dimethyl-5H-thiazolo[2,3-b]quinazoline dihydrochloride]
28 | 125 to 130 | Fc1ccc2c(c1)NC(SCC1=CSC3=NC(Cc4ccccc4)CN13)=NC2 (stereo not shown) (as salt: hydrochloride) [Example 89, 6-benzyl-3-(((7-fluoro-1,4-dihydroquinazolin-2-yl)thio)methyl)-5,6-dihydroimidazo[2,1-b]thiazole dihydrochloride]
29 | 155 to 160 | Fc1ccc(CC2CN3C(CSC4=NCc5ccccc5N4)=CSC3=N2)cc1 (stereo not shown) (as salt: hydrochloride) [Example 196, 3-(((1,4-dihydroquinazolin-2-yl)thio)methyl)-6-(4-fluorobenzyl)-5,6-dihydroimidazo[2,1-b]thiazole dihydrochloride]
30 | 185 to 190 | C1=C(CSC2=NCc3ccccc3N2)N2CC(c3ccccc3)N=C2S1 (stereo not shown) (as salt: hydrochloride) [Example 120, 3-(((1,4-dihydroquinazolin-2-yl)thio)methyl)-6-phenyl-5,6-dihydroimidazo[2,1-b]thiazole dihydrochloride]
31 | 78 to 85 | c1ccc2c(c1)CN=C(SCCCCN1CCCC1)N2 (as salt: hydrochloride) [Example 137, 2-((4-(pyrrolidin-1-yl)butyl)thio)-1,4-dihydroquinazoline dihydrochloride]
